From patent publication US4320057A, “Aryl--pyrrolo--thiazepin--diones and aryl--piperidino--thiazepin--diones” (American Home Products Corporation, priority 1981, dated 1982) come the findings set out here.

The assay concerns the target T1, angiotensin converting enzyme (Oryctolagus cuniculus, UniProt P12822).
T1 construct: A crude angiotensin converting enzyme supernatant is obtained by blending 1 gm. of rabbit lung acetone powder; tissue PelFreez Biologicals; host or cells: rabbit lung acetone powder, crude 40,000 xg supernatant
T1 sequence (P12822 34-1310): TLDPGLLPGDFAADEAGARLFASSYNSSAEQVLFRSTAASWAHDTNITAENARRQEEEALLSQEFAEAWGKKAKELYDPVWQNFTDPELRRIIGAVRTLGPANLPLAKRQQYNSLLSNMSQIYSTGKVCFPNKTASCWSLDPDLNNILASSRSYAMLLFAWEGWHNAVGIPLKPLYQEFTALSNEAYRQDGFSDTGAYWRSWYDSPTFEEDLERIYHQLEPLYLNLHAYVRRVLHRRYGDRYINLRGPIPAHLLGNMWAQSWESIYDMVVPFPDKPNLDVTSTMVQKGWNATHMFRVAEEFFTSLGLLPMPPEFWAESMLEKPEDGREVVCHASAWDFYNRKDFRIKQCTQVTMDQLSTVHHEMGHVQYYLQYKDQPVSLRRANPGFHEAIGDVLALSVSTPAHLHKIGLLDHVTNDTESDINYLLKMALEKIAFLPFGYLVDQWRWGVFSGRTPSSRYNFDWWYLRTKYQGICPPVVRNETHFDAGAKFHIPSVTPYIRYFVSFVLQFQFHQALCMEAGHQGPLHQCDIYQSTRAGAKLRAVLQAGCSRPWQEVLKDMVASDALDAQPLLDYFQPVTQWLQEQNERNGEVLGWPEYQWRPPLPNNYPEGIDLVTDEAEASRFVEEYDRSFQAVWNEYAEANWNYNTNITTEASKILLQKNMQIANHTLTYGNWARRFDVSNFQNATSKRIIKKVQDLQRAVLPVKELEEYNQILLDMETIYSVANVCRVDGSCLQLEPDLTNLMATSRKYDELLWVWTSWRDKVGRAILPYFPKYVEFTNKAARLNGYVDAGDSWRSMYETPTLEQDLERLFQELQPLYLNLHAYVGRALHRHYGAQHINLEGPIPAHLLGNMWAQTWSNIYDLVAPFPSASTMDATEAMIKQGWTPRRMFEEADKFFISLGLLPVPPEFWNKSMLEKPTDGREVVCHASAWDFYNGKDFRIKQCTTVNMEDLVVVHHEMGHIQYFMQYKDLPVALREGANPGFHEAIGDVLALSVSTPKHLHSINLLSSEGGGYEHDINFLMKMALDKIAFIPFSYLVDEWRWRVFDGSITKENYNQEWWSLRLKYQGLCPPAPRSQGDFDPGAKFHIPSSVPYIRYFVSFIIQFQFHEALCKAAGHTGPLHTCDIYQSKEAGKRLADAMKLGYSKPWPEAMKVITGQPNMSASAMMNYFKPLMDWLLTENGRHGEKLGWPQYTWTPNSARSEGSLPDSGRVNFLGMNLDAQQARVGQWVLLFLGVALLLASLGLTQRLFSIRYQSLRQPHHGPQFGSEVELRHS
In words: incubation of hippuryl-L-histidyl-L-leucine with angiotensin converting enzyme (HHL hydrolysis). The note with it: 100 ng/ml; read-out: inhibition of angiotensin converting enzyme in vitro. Type of assay: biochemical, rabbit. As to the method: The activity of the compounds of this invention was established by incubation of hippuryl-L-histidyl-L-leucine at 37° C. with angiotensin converting enzyme by the following procedure:
A crude angiotensin converting enzyme supernatant is obtained by blending 1 gm. of rabbit lung acetone powder (PelFreez Biologicals) with 35 ml of 50 mM (buffered) potassium phosphate, pH 8.3 and centrifuging for 45 min. at 40,000 xg.
The specific angiotensin converting enzyme substrate Hippuryl-L-histidyl-L-leucine (HHL-Sigma Chem. Co.) is prepared at 5 mM in 200 mM potassium phosphate buffer containing 757 mM NaCl at pH 8.3.
Incubation for the assay of HHL hydrolysis by angiotensin converting enzyme is carried out in a 37° C. gyrorotary incubator in disposable 13×100 mm tubes. Each 0.25 ml assay mixture contains the following components at the final concentrations: potassium phosphate buffer, 100 mM; NaCl, 300 mM; HHL, 5 mM; and enzyme 0.15 ml (10 mU approx.) added last to initiate the reaction. Zero time controls have 0.25 ml of 2N HCl added before the enzyme. The timed reactions are terminated with acid at 30 min. similarly and the hippuric acid freed from substrate is extracted into 1.5 ml of ethylacetate by vortex mixing for 15 sec. […]
The hippuric acid is resuspended in 1.0 ml of water, the absorbance at 228 nm is determined, and the amount present is calculated from a standard curve. […]

One may read the inhibition as the share of the control response that was lost under treatment.

For `CC(CSC(=O)c1ccccc1)C(=O)N1C(C(=O)O)CCC1c1ccccc1` (stereo not drawn) [α-acid of Example 7, α-and β-5-Phenyl-1-(3-benzoylthio-2-methyl-1-oxopropyl)proline], the inhibition at 0.1 µg/mL stood at 5%.
